PubChem BioAssay AID1963865 (Molecular Pharmacology Branch, DTP, NCI, 2024)

System: KRAS PDC multicell spheroid viability
Experiment: Anticancer human tumor 825966-067-R-J1-PDC patient-derived colon carcinoma cell line growth inhibition [KRAS2]
Details: for IC50: curve of first compound; for viability, T/C: stronger effect = lower value
How it was run: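 KRAS-mutant tumor cells were grown as spheroids with HUVEC endothelial cells and human MSCs as stroma. Targeted agents were tested alone and with KRAS pathway inhibitors. Doses started at or near clinical Cmax, or 10 microM, descending half-log.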

[1] = second compound 0.1 µM, first compound 0.000316 µM
[2] = second compound 0.1 µM, first compound 0.001 µM
[3] = second compound 0.1 µM, first compound 0.00316 µM
[4] = second compound 0.1 µM, first compound 0.01 µM
[5] = second compound 0.1 µM, first compound 0.0316 µM
[6] = second compound 0.316 µM, first compound 0.000316 µM
[7] = second compound 0.316 µM, first compound 0.001 µM
[8] = second compound 0.316 µM, first compound 0.00316 µM
[9] = second compound 0.316 µM, first compound 0.01 µM
[10] = second compound 0.316 µM, first compound 0.0316 µM
[11] = second compound 1 µM, first compound 0.000316 µM
[12] = second compound 1 µM, first compound 0.001 µM
[13] = second compound 1 µM, first compound 0.00316 µM
[14] = second compound 1 µM, first compound 0.01 µM
[15] = second compound 1 µM, first compound 0.0316 µM
[16] = second compound 3.16 µM, first compound 0.000316 µM
[17] = second compound 3.16 µM, first compound 0.001 µM
[18] = second compound 3.16 µM, first compound 0.00316 µM
[19] = second compound 3.16 µM, first compound 0.01 µM
[20] = second compound 3.16 µM, first compound 0.0316 µM
[21] = second compound 10 µM, first compound 0.000316 µM
[22] = second compound 10 µM, first compound 0.001 µM
[23] = second compound 10 µM, first compound 0.00316 µM
[24] = second compound 10 µM, first compound 0.01 µM
[25] = second compound 10 µM, first compound 0.0316 µM
[26] = second compound 0.1 µM, first compound 0.1 µM
[27] = second compound 0.316 µM, first compound 0.1 µM
[28] = second compound 1 µM, first compound 0.1 µM
[29] = second compound 3.16 µM, first compound 0.1 µM
[30] = second compound 10 µM, first compound 0.1 µM
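Note: spheroids exposed to compounds for 7 days.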
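Throughout, for viability, T/C: 100% = DMSO vehicle control viability.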

In the case of CC(=O)Nc1cccc(-n2c(=O)n(C3CC3)c(=O)c3c(Nc4ccc(I)cc4F)n(C)c(=O)c(C)c32)c1 + CC1OCC2(CCN(c3cnc(Sc4ccnc(N)c4Cl)c(N)n3)CC2)C1N, the IC50 (second compound 0.1 µM) is reported as greater than 0.0316 µM, the IC50 (second compound 0.316 µM) is reported as greater than 0.0316 µM and the IC50 (second compound 1 µM) is reported as 0.00452 µM. For the same molecule, the IC50 (second compound 3.16 µM) was 0.000827 µM, the IC50 (second compound 10 µM) was 0.00012 µM and the viability, T/C (second compound 0.1 µM, first compound 0.0001 µM) was 93.2%. The viability, T/C [1] was 98.9%, the viability, T/C [2] was 125% and the viability, T/C [3] was 103%. It also gave a viability, T/C [4] of 93.5%, a viability, T/C [5] of 56.5% and a viability, T/C (second compound 0.316 µM, first compound 0.0001 µM) of 96.3%. It also gave a viability, T/C [6] of 91.8%, a viability, T/C [7] of 110% and a viability, T/C [8] of 116%. It also gave a viability, T/C [9] of 64.8%, a viability, T/C [10] of 49.6% and a viability, T/C (second compound 1 µM, first compound 0.0001 µM) of 80.8%. For the same molecule, the viability, T/C [11] was 128%, the viability, T/C [12] was 105% and the viability, T/C [13] was 61.2%. It also gave a viability, T/C [14] of 27.2%, a viability, T/C [15] of 21.5% and a viability, T/C (second compound 3.16 µM, first compound 0.0001 µM) of 97.1%. The viability, T/C [16] was 108%, the viability, T/C [17] was 39.6% and the viability, T/C [18] was 28.2%. It also gave a viability, T/C [19] of 18.4%, a viability, T/C [20] of 15.8% and a viability, T/C (second compound 10 µM, first compound 0.0001 µM) of 57.4%. For the same molecule, the viability, T/C [21] was 9.62%, the viability, T/C [22] was 7.27% and the viability, T/C [23] was 6.92%. The viability, T/C [24] was 5.11% and the viability, T/C [25] was 14.4%.

For CC(C)n1nc(-c2ccc3oc(N)nc3c2)c2c(N)ncnc21 + CC1OCC2(CCN(c3cnc(Sc4ccnc(N)c4Cl)c(N)n3)CC2)C1N, the IC50 (second compound 0.1 µM) was greater than 0.1 µM, the IC50 (second compound 0.316 µM) was greater than 0.1 µM and the IC50 (second compound 1 µM) was greater than 0.1 µM. It also gave an IC50 (second compound 3.16 µM) greater than 0.1 µM, an IC50 (second compound 10 µM) of less than 0.000316 µM and a viability, T/C [1] of 89.9%. The viability, T/C [2] was 93.2%, the viability, T/C [3] was 133% and the viability, T/C [4] was 162%. The viability, T/C [5] was 132%, the viability, T/C [26] was 138% and the viability, T/C [6] was 101%. For the same molecule, the viability, T/C [7] was 115%, the viability, T/C [8] was 133% and the viability, T/C [9] was 166%. For the same molecule, the viability, T/C [10] was 132%, the viability, T/C [27] was 109% and the viability, T/C [11] was 115%. The viability, T/C [12] was 111%, the viability, T/C [13] was 162% and the viability, T/C [14] was 170%. The viability, T/C [15] was 140%, the viability, T/C [28] was 84.8% and the viability, T/C [16] was 125%. It also gave a viability, T/C [17] of 129%, a viability, T/C [18] of 140% and a viability, T/C [19] of 123%. It also gave a viability, T/C [20] of 127%, a viability, T/C [29] of 81.2% and a viability, T/C [21] of 30.2%. The viability, T/C [22] was 62.6%, the viability, T/C [23] was 32.7% and the viability, T/C [24] was 30.8%. For the same molecule, the viability, T/C [25] was 61.5% and the viability, T/C [30] was 24.8%.

In the case of CC1(C)CCC(CN2CCN(c3ccc(C(=O)NS(=O)(=O)c4ccc(NCC5CCOCC5)c([N+](=O)[O-])c4)c(Oc4cnc5[nH]ccc5c4)c3)CC2)=C(c2ccc(Cl)cc2)C1 + CC1OCC2(CCN(c3cnc(Sc4ccnc(N)c4Cl)c(N)n3)CC2)C1N, the IC50 (second compound 0.1 µM) is reported as 2.22 µM, the IC50 (second compound 0.316 µM) is reported as 2.23 µM and the IC50 (second compound 1 µM) is reported as 2.14 µM. It also gave an IC50 (second compound 3.16 µM) of 2.36 µM, an IC50 (second compound 10 µM) of 1.97 µM and a viability, T/C [5] of 103%. The viability, T/C [26] was 88.4%, the viability, T/C (second compound 0.1 µM, first compound 0.316 µM) was 116% and the viability, T/C (second compound 0.1 µM, first compound 1 µM) was 114%. The viability, T/C (second compound 0.1 µM, first compound 3.16 µM) was 25.6%, the viability, T/C (second compound 0.1 µM, first compound 10 µM) was 11.1% and the viability, T/C [10] was 102%. The viability, T/C [27] was 104%, the viability, T/C (second compound 0.316 µM, first compound 0.316 µM) was 119% and the viability, T/C (second compound 0.316 µM, first compound 1 µM) was 96.9%. For the same molecule, the viability, T/C (second compound 0.316 µM, first compound 3.16 µM) was 29.6%, the viability, T/C (second compound 0.316 µM, first compound 10 µM) was 3.21% and the viability, T/C [15] was 99%. It also gave a viability, T/C [28] of 110%, a viability, T/C (second compound 1 µM, first compound 0.316 µM) of 119% and a viability, T/C (second compound 1 µM, first compound 1 µM) of 110%. The viability, T/C (second compound 1 µM, first compound 3.16 µM) was 19.3%, the viability, T/C (second compound 1 µM, first compound 10 µM) was 4.73% and the viability, T/C [20] was 122%. For the same molecule, the viability, T/C [29] was 126%, the viability, T/C (second compound 3.16 µM, first compound 0.316 µM) was 111% and the viability, T/C (second compound 3.16 µM, first compound 1 µM) was 119%. The viability, T/C (second compound 3.16 µM, first compound 3.16 µM) was 26.6%, the viability, T/C (second compound 3.16 µM, first compound 10 µM) was 4.06% and the viability, T/C [25] was 69%. For the same molecule, the viability, T/C [30] was 78.2%, the viability, T/C (second compound 10 µM, first compound 0.316 µM) was 131% and the viability, T/C (second compound 10 µM, first compound 1 µM) was 141%. It also gave a viability, T/C (second compound 10 µM, first compound 3.16 µM) of 11.5% and a viability, T/C (second compound 10 µM, first compound 10 µM) of 2%.
